{"source": "patent US9296818B2", "about": "“Cleavage inhibitors of transforming growth factor beta type I receptor and uses thereof in cancer therapy” (priority 2011, dated 2016)", "key": {"PC-3U cells": {"system": "PC-3U cells", "assay": "CytoSelect cell invasion assay, PC-3U", "assay_type": "cell-based, human", "procedure": "(§1) Invasion assays were performed using the CytoSelect Cell Invasion Assay (Cell Biolabs, Inc., San Diego, Calif.). Briefly, the basement membrane layer of the cell culture inserts were rehydrated in 300 μl serum-free RPMI-1640 and 2×10^6 cells were seeded into the upper sections of the chambers in serum-free RPMI-1640 with or without TGFβ. The lower wells of the invasion plates were filled with 500 μl RPMI supplemented with 10% FBS. Non-invasive cells were removed from the upper chamber and invasive cells were stained with crystal violet cell stain solution. Invasive cells were photographed with a Leica DMR light microscope. Colorimetric quantification was performed by transferring inserts into 200 μl of extraction solution for 10 min and then, transferring to a 96-well microtiter plate. The OD at 560 nm was determined with a plate reader (Supplementary Information FIG. S5a).\nThe cancer cell invasion assay described in Example 1 above was performed to examine the ability of γ-secretase inhibitors in suppressing cancel cell invasion. Prostate cancers cells PC-3U, human lung carcinoma cells A549, and human breast carcinoma cells MDA-MB-231 were cultured following routine procedures, treated with TGFβ in the presence of absence of L-685,458, a γ-secretase inhibitor. Cells were visualized by staining with a crystal violet cell staining solution. […]"}, "A549 cells": {"system": "A549 cells", "assay": "CytoSelect cell invasion assay, A549", "assay_type": "cell-based, human", "procedure": "as §1\n(§2) The cancer cell invasion assay described in Example 1 above was performed to examine the ability of γ-secretase inhibitors in suppressing cancel cell invasion. Prostate cancers cells PC-3U, human lung carcinoma cells A549, and human breast carcinoma cells MDA-MB-231 were cultured following routine procedures, treated with TGFβ in the presence of absence of L-685,458, a γ-secretase inhibitor. Cells were visualized by staining with a crystal violet cell staining solution."}, "MDA-MB-231 cells": {"system": "MDA-MB-231 cells", "assay": "CytoSelect cell invasion assay, MDA-MB-231", "assay_type": "cell-based, human", "procedure": "as §1, §2"}, "TβRI": {"system": "TβRI", "assay": "Formation of TβRI ICD (immunoblotting of cell lysates)", "assay_type": "cell-based, human", "conditions": "PC-3U cells", "procedure": "(§3) Protein-G Sepharose was obtained from GE Healthcare.; LumiLight Western blotting substrate and Pefabloc were from Roche, PageRuler prestained protein ladder was from Fermentas; and TAPI-2 was from BIOMOL Research Laboratories Inc. TAPI-2 was used at concentrations of 10-20 μM. The p38α/β inhibitor (SB203580) was purchased from Calbiochem (it was used at a concentration of 10 μM). PKCζ pseudosubstrate was from TOCRIS Bioscience and used at concentrations of 10-50 μM. The PKCζ activator, phorbol 12-myristate 13-acetate (PMA, referred to as TPA in our paper), and a TβRI inhibitor (SB505124) were purchased from Sigma. The SB505124 inhibitor was used at a concentration of 10 μM and the TPA at a concentration of 100 nM. The general PKCζ inhibitor, GF109203X, was purchased from Sigma. All inhibitors were added to cells 1 h before TGFβ stimulation.\n(§4) Cells were starved for 12-18 h and then stimulated with TGFβ for the indicated time periods, washed twice in ice-cold PBS, and lysed in ice-cold lysis buffer (150 mM NaCl, 50 mM Tris pH 8.0, 0.5% (v/v) deoxycholate, 1% (v/v) NP40, 10% (v/v) glycerol, 1 mM aprotinin, 1 mM Pefabloc and 2 mM sodium orthovanadate). After centrifugation, supernatants were collected and protein concentrations were determined using the bicinchoninic acid (BCA) protein measurement kit (Nordic Biolabs). Equal volumes were subjected to immunoprecipitation. […]"}, "TβRI ICD": {"system": "TβRI ICD", "assay": "Nuclear accumulation of TβRI ICD (immunofluorescence, nuclear fractionation)", "assay_type": "cell-based, human", "procedure": "Before TGF-β1 stimulation, the cells were starved for 12-18 h in medium supplemented with 1% FBS. In all assays, the cells were stimulated with 10 ng/ml TGFβ1 (R&D System, UK).\nas §3\nas §4, with “immunoprecipitation. Equal amounts of protein from total cell lysates and immunoprecipitations were subjected to electrophoresis on 6%, 10%, 12%, or 4-12% gradient SDS-polyacrylamide gels (SDS-PAGE), blotted on to polyvinylidine difluoride membranes, and subjected to immunoblotting, as previously described.^23 The […] cell lysate from Santa Cruz was used as a positive control for TβRI.” for “immunoprecipitation.”"}, "PKCζ": {"target": "T1, PKCζ (Homo sapiens, UniProt Q05513)", "T1 construct": "Cell lysates from PC-3U cells treated with TGFβ or TPA were subjected to immunoblotting with an antiserum against pPKCζ; endogenous in cells; host or cells: PC-3U (human prostate cancer cell line)", "T1 sequence (Q05513 1-592)": "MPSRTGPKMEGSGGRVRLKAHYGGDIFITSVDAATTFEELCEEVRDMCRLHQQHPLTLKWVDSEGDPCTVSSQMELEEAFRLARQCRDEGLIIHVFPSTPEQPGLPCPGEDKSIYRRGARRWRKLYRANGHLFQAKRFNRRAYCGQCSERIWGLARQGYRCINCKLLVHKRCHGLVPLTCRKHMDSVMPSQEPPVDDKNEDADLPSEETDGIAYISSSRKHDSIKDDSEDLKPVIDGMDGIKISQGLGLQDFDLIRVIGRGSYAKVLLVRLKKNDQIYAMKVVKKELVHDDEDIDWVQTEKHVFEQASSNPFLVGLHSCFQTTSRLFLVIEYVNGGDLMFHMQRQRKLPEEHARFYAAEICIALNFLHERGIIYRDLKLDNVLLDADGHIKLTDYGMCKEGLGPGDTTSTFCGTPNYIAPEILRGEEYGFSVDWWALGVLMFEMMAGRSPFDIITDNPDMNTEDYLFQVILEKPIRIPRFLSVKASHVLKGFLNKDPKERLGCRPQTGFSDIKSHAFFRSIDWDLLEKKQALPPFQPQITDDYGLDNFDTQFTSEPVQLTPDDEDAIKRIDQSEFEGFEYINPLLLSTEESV", "assay": "Activation of PKCζ (immunoblotting for p-PKCζ)", "assay_type": "cell-based", "conditions": "PC-3U cells", "procedure": "Cells were starved for 12-18 h and then stimulated with TGFβ for the indicated time periods, washed twice in ice-cold PBS, and lysed in ice-cold lysis buffer (150 mM NaCl, 50 mM Tris pH 8.0, 0.5% (v/v) deoxycholate, 1% (v/v) NP40, 10% (v/v) glycerol, 1 mM aprotinin, 1 mM Pefabloc and 2 mM sodium orthovanadate). After centrifugation, supernatants were collected and protein concentrations were determined using the bicinchoninic acid (BCA) protein measurement kit (Nordic Biolabs). Equal volumes were subjected to immunoprecipitation. Equal amounts of protein from total cell lysates and immunoprecipitations were subjected to electrophoresis on 6%, 10%, 12%, or 4-12% gradient SDS-polyacrylamide gels (SDS-PAGE), blotted on to polyvinylidine difluoride membranes, and subjected to immunoblotting, as previously described.^23 The […] cell lysate from Santa Cruz was used as a positive control for TβRI. The ubiquitination assays, immunofluorescence assays, and transient transfections were performed as previously described.^5,23,24 Photomicrographs were obtained with a Zeiss 510 Meta (Carl Zeiss Microimaging, Inc.) equipped with a digital camera (RET-EXi-F-M-12-C) from Q-imaging."}}, "note": "“Also recorded” adds a separate entry of the source."}
{"compound": "CC(C)C[C@H](NC(=O)[C@H](Cc1ccccc1)C[C@@H](O)[C@H](Cc1ccccc1)NC(=O)OC(C)(C)C)C(=O)N[C@@H](Cc1ccccc1)C(N)=O", "note": "[L-685,458]", "values": [{"measurement": "TGFβ-induced cancer cell invasion", "setting": "PC-3U cells", "value": "significantly suppressed"}, {"measurement": "TGFβ-induced cancer cell invasion", "setting": "A549 cells", "value": "significantly suppressed"}, {"measurement": "TGFβ-induced cancer cell invasion", "setting": "MDA-MB-231 cells", "value": "significantly suppressed"}]}
{"compound": "Cc1cccc(-c2[nH]c(C(C)(C)C)nc2-c2ccc3c(c2)OCO3)n1", "note": "[SB505124]", "values": [{"measurement": "formation of the TβRI ICD", "setting": "TβRI", "value": "no major effect"}]}
{"compound": "CC(C)C[C@H](CC(=O)NO)C(=O)N[C@H](C(=O)N[C@@H](C)C(=O)NCCN)C(C)(C)C", "note": "[TAPI-2]", "values": [{"measurement": "nuclear translocation/accumulation of TβRI ICD in response to TGFβ stimulation", "setting": "TβRI ICD; PC-3U cells, TGFβ, inhibitor added 1 h before TGFβ, V22 antibody", "value": "reduction; also recorded: partly prevented"}]}
{"compound": "phorbol 12-myristate 13-acetate [TPA]", "values": [{"measurement": "ICD in the nuclear fraction", "setting": "TβRI ICD; HA-caTβRI-expressing PC-3U cells treated with TPA", "value": "accumulated in the nuclear fraction"}, {"measurement": "nuclear accumulation of endogenous TβRI ICD, immunofluorescence", "setting": "TβRI ICD; PC-3U cells treated with TPA alone, 6 h", "value": "led to nuclear accumulation"}, {"measurement": "activation of PKCζ (p-PKCζ)", "setting": "PKCζ", "value": "activated"}]}
